Measurements published in patent US20070060566A1, “Benzazepine derivatives as histamine h3 antagonists” (priority 2003, published 2007).

Molecular target: T1, human histamine H3 receptor (Homo sapiens, UniProt Q9Y5N1)
T1 construct: expressed in transfected cells; host or cells: CHO K1 cells carrying the pSwitch regulatory plasmid, transfected with pGeneH3, induced with mifepristone; clone 3H3
Assay: Histamine H3 functional antagonist assay ([35S]GTPγS SPA on membranes)
Format: biochemical
Conditions: membranes of CHO K1 cells expressing human histamine H3; histamine 0.3 μM; read-out: antagonism (pKb) (converted)
Text: A membrane preparation containing histamine H3 receptors may be prepared in accordance with the following procedures:
(i) Generation of Histamine H3 Cell Line
DNA encoding the human histamine H3 gene (Huvar, A. et al. (1999) Mol. Pharmacol. 55(6), 1101-1107) was cloned into a holding vector, pCDNA3.1 TOPO (InVitrogen) and its cDNA was isolated from this vector by restriction digestion of plasmid DNA with the enzymes BamH1 and Not-1 and ligated into the inducible expression vector pGene (InVitrogen) digested with the same enzymes. The GeneSwitch™ system (a system where in transgene expression is switched off in the absence of an inducer and switched on in the presence of an inducer) was performed as described in U.S. Pat. Nos. 5,364,791; 5,874,534; and 5,935,934. Ligated DNA was transformed into competent DH5α E. coli host bacterial cells and plated onto Luria Broth (LB) agar containing Zeocin™ (an antibiotic which allows the selection of cells expressing the sh ble gene which is present on pGene and pSwitch) at 50 μg ml^−1. Colonies containing the re-ligated plasmid were identified by restriction analysis. DNA for transfection into mammalian cells was prepared from 250 ml cultures of the host bacterium containing the pGeneH3 plasmid and isolated using a DNA preparation kit (Qiagen Midi-Prep) as per manufacturers guidelines (Qiagen).
CHO K1 cells previously transfected with the pSwitch regulatory plasmid (InVitrogen) were seeded at 2×10e6 cells per T75 flask in Complete Medium, containing Hams F12 (GIBCOBRL, Life Technologies) medium supplemented with 10% v/v dialysed foetal bovine serum, L-glutamine, and hygromycin (100 μg ml^−1), 24 hours prior to use. Plasmid DNA was transfected into the cells using Lipofectamine plus according to the manufacturers guidelines (InVitrogen). 48 hours post transfection cells were placed into complete medium supplemented with 500 μg ml^−1 Zeocin™.
10-14 days post selection 10 nM Mifepristone (InVitrogen), was added to the culture medium to induce the expression of the receptor. 18 hours post induction cells were detached from the flask using ethylenediamine tetra-acetic acid (EDTA; 1:5000; InVitrogen), following several washes with phosphate buffered saline pH 7.4 and resuspended in Sorting Medium containing Minimum Essential Medium (MEM), without phenol red, and supplemented with Earles salts and 3% Foetal Clone II (Hyclone). Approximately 1×10e7 cells were examined for receptor expression by staining with a rabbit polyclonal antibody, 4a, raised against the N-terminal domain of the histamine H3 receptor, incubated on ice for 60 minutes, followed by two washes in sorting medium. Receptor bound antibody was detected by incubation of the cells for 60 minutes on ice with a goat anti rabbit antibody, conjugated with Alexa 488 fluorescence marker (Molecular Probes). Following two further washes with Sorting Medium, cells were filtered through a 50 μm Filcon™ (BD Biosciences) and then analysed on a FACS Vantage SE Flow Cytometer fitted with an Automatic Cell Deposition Unit. Control cells were non-induced cells treated in a similar manner. Positively stained cells were sorted as single cells into 96-well plates, containing Complete Medium containing 500 μg ml^−1 Zeocin™ and allowed to expand before reanalysis for receptor expression via antibody and ligand binding studies. One clone, 3H3, was selected for membrane preparation.
(ii) Membrane Preparation from Cultured Cells
All steps of the protocol are carried out at 4° C. and with pre-cooled reagents. The cell pellet is resuspended in 10 volumes of buffer A2 containing 50 mM N-2-hydroxyethylpiperazine-N′-2-ethanesulfonic acid (HEPES) (pH 7.40) supplemented with 10e-4M leupeptin (acetyl-leucyl-leucyl-arginal; Sigma L2884), 25 μg/ml bacitracin (Sigma B0125), 1 mM ethylenediamine tetra-acetic acid (EDTA), 1 mM phenylmethylsulfonyl fluoride (PMSF) and 2×10e-6M pepstain A (Sigma). […]

T1 sequence (Q9Y5N1 whole entry): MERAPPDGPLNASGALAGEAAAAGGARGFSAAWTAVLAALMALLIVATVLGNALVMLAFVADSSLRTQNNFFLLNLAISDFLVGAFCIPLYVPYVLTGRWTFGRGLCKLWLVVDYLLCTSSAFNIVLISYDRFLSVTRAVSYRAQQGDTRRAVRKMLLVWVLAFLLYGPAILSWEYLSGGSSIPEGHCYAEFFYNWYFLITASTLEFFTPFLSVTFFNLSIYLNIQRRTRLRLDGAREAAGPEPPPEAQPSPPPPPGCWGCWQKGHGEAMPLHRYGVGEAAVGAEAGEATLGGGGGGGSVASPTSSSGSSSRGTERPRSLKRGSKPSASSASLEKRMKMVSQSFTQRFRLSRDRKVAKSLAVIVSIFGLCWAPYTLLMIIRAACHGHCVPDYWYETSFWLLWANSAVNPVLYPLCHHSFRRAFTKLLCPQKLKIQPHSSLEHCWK

| Kb [pM] | SMILES |
| --- | --- |
| < 316 | Cc1ccc(C(=O)Nc2ccc3c(c2)CCN(C2CCC2)CC3)cn1 [Example 37, N-(3-Cyclobutyl-2,3,4,5-tetrahydro-1H-3-benzazepin-7-yl)-6-methylnicotinamide] |
| < 316 | N#Cc1ccc(-c2ccc(C(=O)Nc3ccc4c(c3)CCN(C3CCC3)CC4)cn2)cc1 [Example 98, 6-(4-Cyanophenyl)-N-(3-cyclobutyl-2,3,4,5-tetrahydro-1H-3-benzazepin-7-yl)-3-pyridinecarboxamide] |
| < 316 | O=C(Nc1ccc2c(c1)CCN(C1CCC1)CC2)c1ccc(N2CCOCC2)nc1 [Example 44, N-(3-Cyclobutyl-2,3,4,5-tetrahydro-1H-3-benzazepin-7-yl)-6-(4-morpholinyl)-3-pyridinecarboxamide] |
| < 316 | O=C(Nc1ccc2c(c1)CCN(C1CCC1)CC2)c1cnc(N2CCCCC2)cn1 [Example 113, N-(3-Cyclobutyl-2,3,4,5-tetrahydro-1H-3-benzazepin-7-yl)-5-(1-piperidinyl)-2-pyrazinecarboxamide] |

Further lines, the compound ahead of its results:

| SMILES | Kb [pM] |
| --- | --- |
| N#Cc1ccc(C(=O)Nc2ccc3c(c2)CCN(C2CCC2)CC3)cc1 [Example 2, 4-Cyano-N-(3-cyclobutyl-2,3,4,5-tetrahydro-1H-3-benzazepin-7-yl)benzamide] | < 316 |
| O=C(Nc1ccc2c(c1)CCN(C1CCC1)CC2)c1ccc(-c2ccccn2)cc1 [Example 8, N-(3-Cyclobutyl-2,3,4,5-tetrahydro-1H-3-benzazepin-7-yl)-4-(2-pyridinyl)benzamide] | < 316 |
| O=C(Nc1ccc2c(c1)CCN(C1CCC1)CC2)c1ccc(-n2cnnn2)cc1 [Example 33, N-(3-Cyclobutyl-2,3,4,5-tetrahydro-1H-3-benzazepin-7-yl)-4-(1H-tetrazol-1-yl)benzamide] | < 316 |
| N#Cc1ccc(-c2ccc(C(=O)Nc3ccc4c(c3)CCN(C3CCC3)CC4)cc2)cn1 [Example 34, 4-(6-Cyano-3-pyridinyl)-N-(3-cyclobutyl-2,3,4,5-tetrahydro-1H-3-benzazepin-7-yl)benzamide] | < 316 |
| O=C(Nc1ccc2c(c1)CCN(C1CCC1)CC2)c1ccc(-c2cncnc2)cc1 [Example 29, N-(3-Cyclobutyl-2,3,4,5-tetrahydro-1H-3-benzazepin-7-yl)-4-(5-pyrimidinyl)benzamide] | < 316 |
| O=C(Nc1ccc2c(c1)CCN(C1CCC1)CC2)N1CCCc2ccccc21 [Example 148, N-(3-Cyclobutyl-2,3,4,5-tetrahydro-1H-3-benzazepin-7-yl)-3,4-dihydro-1(2H)-quinolinecarboxamide] | < 316 |
| O=C(Nc1ccc2c(c1)CCN(C1CCC1)CC2)c1ccc(N2CCNC2=O)cc1 [Example 88, N-(3-Cyclobutyl-2,3,4,5-tetrahydro-1H-3-benzazepin-7-yl)-4-(2-oxo-1-imidazolidinyl)benzamide] | < 316 |
